What was measured:
[1] = tested on: HCV replicon genotype 1b; assay: HCV replicon assay, genotype 1b (cell ELISA for NS3/4A); format: cell-based; conditions: Hepatitis C virus, 96 h, read-out: 1b IC50 (nM)
Experimental: (§1) Measurement of inhibition by compounds was performed using the HCV replicon system. Several different replicons encoding different HCV genotypes or mutations were used. In addition, potency measurements were made using different formats of the replicon assay, including different ways of measurements and different plating formats. See Jan M. Vrolijk et al., A replicons-based bioassay for the measurement of interferons in patients with chronic hepatitis C, 110 J. V[…] 201 (2003); Steven S. Carroll et al., Inhibition of Hepatitis C Virus RNA Replication by 2′-Modified Nucleoside Analogs, 278(14) J. BIOLOGICAL CHEMISTRY 11979 (2003). However, the underlying principles are common to all of these determinations, and are outlined below.
(§2) Stable neomycin phosphotransferase encoding replicons-harboring cell lines were used, so all cell lines were maintained under G418 selection prior to the assay. Potency was determined using a cell ELISA assay with an antibody to the replicons encoded NS3/4a protease. See Caterina Trozzi et al., In Vitro Selection and Characterization of Hepatitis C Virus Serine Protease Variants Resistant to an Active-Site Peptide Inhibitor, 77(6) J. Virol. 3669 (2003). To initiate an assay, replicon cells were plated in the presence of a dilution series of test compound in the absence of G418. Typically, the assays were performed in a 96-well plate formate for manual operation, or a 384-well plate format for automated assay. Replicon cells and compound were incubated for 96 hours. At the end of the assay, cells were washed free of media and compound, and the cells were then lysed. RNA was quantified indirectly through detection of replicon-encoded NS3/4A protein levels, through an ELISA-based assay with an antibody specific for NS3/4A. IC50 determinations were calculated as a percentage of a DMSO control by fitting the data to a four-parameter fit function and the data obtained is provided in the table below.
(§3) Data for selected compounds of the present invention was obtained for genotypes 1a and 1b using this method and is provided in the table below: […]

[2] = tested on: HCV replicon genotype 1a; assay: HCV replicon assay, genotype 1a (cell ELISA for NS3/4A); format: cell-based; conditions: Hepatitis C virus, 96 h, read-out: 1a IC50 (nM)
Experimental: as §1, §2, §3

| SMILES | IC50 [1] [nM] | IC50 [2] [nM] |
| --- | --- | --- |
| CNC(=O)c1c(-c2ccc(F)cc2)oc2cc(N(C)S(C)(=O)=O)c(-c3cnc(OC)c(-c4cc5cccc(F)c5[nH]4)n3)cc12 [Compound 226] | 7.2 | 3.4 |
| CNC(=O)c1c(-c2ccc(F)cc2)oc2cc(N(C)S(C)(=O)=O)c(-c3ccc(-c4nc5c(F)cccc5o4)s3)cc12 [Compound 157] | 1.5 | 0.9 |
| CNC(=O)c1c(-c2ccc(F)cc2)oc2cc(N(C)S(C)(=O)=O)c(-c3cncc(-c4cc5ccccc5[nH]4)n3)cc12 [Compound 113] | 0.8 | 0.3 |
| CNC(=O)c1c(-c2ccc(F)cc2)oc2cc(N(C)S(C)(=O)=O)c(-c3cnnc(-c4cc5ncccc5[nH]4)c3)cc12 [Compound 286] | 5 | 17 |
| CNC(=O)c1c(-c2ccc(F)cc2)oc2cc(N(C)S(C)(=O)=O)c(-c3cc(-c4cc5c(C#N)cccc5[nH]4)nnc3C)cc12 [Compound 266] | 3 | 3.2 |
| CNC(=O)c1c(-c2ccc(F)cc2)oc2cc(N(C)S(C)(=O)=O)c(-c3cc(-c4cc5c(F)cccc5[nH]4)cnn3)cc12 [Compound 263] | 2.4 | 3.2 |
| CNC(=O)c1c(-c2ccc(F)cc2)oc2cc(N(C)S(C)(=O)=O)c(-c3cc(-c4cc5c(F)cccc5[nH]4)c(OC)nn3)cc12 [Compound 218] | 9.2 | 4.2 |
| CNC(=O)c1c(-c2ccc(F)cc2)oc2cc(N(C)S(C)(=O)=O)c(-c3cncc(-c4nc5c(F)cccc5o4)c3)cc12 [Compound 2] | 0.8 | 0.3 |
| CNC(=O)c1c(-c2ccc(F)cc2)oc2cc(N(C)S(C)(=O)=O)c(-c3cnnc(-c4nc5ccccc5s4)c3)cc12 [Compound 287] | 5.1 | 3.2 |
| CNC(=O)c1c(-c2ccc(F)cc2)oc2cc(N(C)S(C)(=O)=O)c(-c3cncc(-c4nc5c(s4)C4CCC5C4)c3)cc12 (stereo not shown) [Compound 182] | 4.3 | 4.4 |
| CNC(=O)c1c(-c2ccc(F)cc2)oc2cc(N(C)S(C)(=O)=O)c(-c3ccc(OC)c(-c4cc5ncccc5[nH]4)n3)cc12 [Compound 211] | 2.5 | 8.8 |
| CNC(=O)c1c(-c2ccc(F)cc2)oc2cc(N(C)S(C)(=O)=O)c(-c3cc(-c4cc5c(F)cccc5n4CCOC)cnn3)cc12 [Compound 278] | 14 | 37 |
| CNC(=O)c1c(-c2ccc(F)cc2)oc2cc(N(C)S(C)(=O)=O)c(-c3cncc(-c4cc5c(F)cccc5[nH]4)n3)cc12 [Compound 121] | 1.2 | 0.8 |
| CNC(=O)c1c(-c2ccc(F)cc2)oc2cc(N(C)S(C)(=O)=O)c(-c3cc(-c4cc5ccccc5[nH]4)nc(C#N)n3)cc12 [Compound 151] | 3.7 | 7.7 |
| CNC(=O)c1c(-c2ccc(F)cc2)oc2cc(N(CCCF)S(C)(=O)=O)c(-c3cncc(-c4cc5ccccc5[nH]4)c3)cc12 [Compound 244] | 4.7 | 2.7 |
| CNC(=O)c1c(-c2ccc(F)cc2)oc2cc(N(C)S(C)(=O)=O)c(-c3cnnc(-c4[nH]c5ccccc5c4C)c3)cc12 [Compound 288] | 25 | 75 |
| CNC(=O)c1c(-c2ccc(F)cc2)oc2cc(N(C)S(C)(=O)=O)c(-c3cnnc(N4Cc5c(F)cccc5C4=O)c3)cc12 [Compound 281] | 4.8 | 22.3 |
| CNC(=O)c1c(-c2ccc(F)cc2)oc2cc(N(C)S(C)(=O)=O)c(-c3cnnc(-c4cc5c(F)cccc5n4CCO)c3)cc12 [Compound 277] | 6.7 | 7.4 |
| CNC(=O)c1c(-c2ccc(F)cc2)oc2cc(N(C)S(C)(=O)=O)c(-c3nnc(-c4cc5c(F)cccc5[nH]4)o3)cc12 [Compound 256, 5-(5-(4-fluoro-1H-indol-2-yl)-1,3,4-oxadiazol-2-yl)-2-(4-fluorophenyl)-N-methyl-6-(N-methylmethylsulfonamido)benzofuran-3-carboxamide] | 0.7 | 0.4 |
| CNC(=O)c1c(-c2ccc(F)cc2)oc2cc(N(C)S(C)(=O)=O)c(-c3cc(-c4cc5ccccc5[nH]4)ncn3)cc12 [Compound 108, 5-(6-(1H-indol-2-yl)pyrimidin-4-yl)-2-(4-fluorophenyl)-N-methyl-6-(N-methylmethylsulfonamido)benzofuran-3-carboxamide] | 1.2 | 0.7 |
| CNC(=O)c1c(-c2ccc(F)cc2)oc2cc(N(C)S(C)(=O)=O)c(-c3ccnc(-c4nc5c(F)cccc5o4)c3)cc12 [Compound 9] | 1.3 | 0.6 |

| SMILES | IC50 [1] [nM] | IC50 [2] [nM] |
| --- | --- | --- |
| CNC(=O)c1c(-c2ccc(F)cc2)oc2cc(N(C)S(C)(=O)=O)c(-c3cncc(-c4cc5cccc(F)c5[nH]4)n3)cc12 [Compound 139] | 0.8 | 0.8 |
| CNC(=O)c1c(-c2ccc(F)cc2)oc2cc(N(C)S(C)(=O)=O)c(-c3cc(-c4cc5c(F)cccc5[nH]4)ncn3)cc12 [Compound 119] | 1.5 | 0.7 |
| CNC(=O)c1c(-c2ccc(F)cc2)oc2cc(N(C)S(C)(=O)=O)c(-c3cnnc(-c4cc5c(C#N)cccc5n4C)c3)cc12 [Compound 273] | 0.2 | 0.3 |
| CNC(=O)c1c(-c2ccc(F)cc2)oc2cc(N(C)S(C)(=O)=O)c(-c3cnnc(-c4cc5c(F)cccc5n4CCOC)c3)cc12 [Compound 279] | 3.2 | 2.5 |
| CNC(=O)c1c(-c2ccc(F)cc2)oc2cc(N(C)S(C)(=O)=O)c(-c3ccc(OC)c(-c4cc5ccccn5n4)n3)cc12 [Compound 254, 2-(4-fluorophenyl)-5-(5-methoxy-6-(pyrazolo[1,5-a]pyridin-2-yl)pyridin-2-yl)-N-methyl-6-(N-methylmethylsulfonamido)benzofuran-3-carboxamide] | 26 | 214 |
| CNC(=O)c1c(-c2ccc(F)cc2)oc2cc(N(C)S(C)(=O)=O)c(-c3cncc(-c4cc5ccncc5s4)c3)cc12 [Compound 179] | 5.1 | 8.2 |
| CNC(=O)c1c(-c2ccc(F)cc2)oc2cc(N(C)S(C)(=O)=O)c(-c3cnnc(-c4cc5c(C#N)cccc5[nH]4)c3)cc12 [Compound 260] | 1.1 | 0.7 |
| CNC(=O)c1c(-c2ccc(F)cc2)oc2cc(N(C)S(C)(=O)=O)c(-c3cnc(OC)c(-c4nc5c(o4)CCCC5(F)F)c3)cc12 [Compound 94] | 1.9 | 0.8 |
| CNC(=O)c1c(-c2ccc(F)cc2)oc2cc(N(C)S(C)(=O)=O)c(-c3cc(-c4cc5c(F)cccc5[nH]4)ncc3-c3cc4c(F)cccc4[nH]3)cc12 [Compound 290] | 10 | 9.8 |
| CNC(=O)c1c(-c2ccc(F)cc2)oc2cc(N(C)S(C)(=O)=O)c(-c3ccc(OC)c(-c4cc5cccc(C#N)c5[nH]4)n3)cc12 [Compound 208] | 7.2 | 27 |
| CNC(=O)c1c(-c2ccc(F)cc2)oc2cc(N(C)S(C)(=O)=O)c(-c3cc(-c4cc5ccccc5[nH]4)c(OC)nn3)cc12 [Compound 209] | 4.7 | 8.9 |
| CNC(=O)c1c(-c2ccc(F)cc2)oc2cc(N(C)S(C)(=O)=O)c(-c3cnnc(-n4cc5c(F)cccc5n4)c3)cc12 [Compound 265] | 4.1 | 4.5 |
| CNC(=O)c1c(-c2ccc(F)cc2)oc2cc(N(C)S(C)(=O)=O)c(-c3cc(-c4nc5c(F)cccc5o4)c(F)cn3)cc12 [Compound 13] | 1.4 | 0.7 |
| CNC(=O)c1c(-c2ccc(F)cc2)oc2cc(N(C)S(C)(=O)=O)c(-c3ccnc(-c4cc5c(C#N)cccc5[nH]4)c3)cc12 [Compound 233] | 0.4 | 0.1 |
| CNC(=O)c1c(-c2ccc(F)cc2)oc2cc(N(C)S(C)(=O)=O)c(-c3cncc(-c4nc5ccccc5s4)c3)cc12 [Compound 62] | 1.2 | 2 |
| CNC(=O)c1c(-c2ccc(F)cc2)oc2cc(N(C)S(C)(=O)=O)c(-c3nc(-c4cc5ccccc5[nH]4)c(OC)cc3OC)cc12 [Compound 224] | 31 | 99 |
| CNC(=O)c1c(-c2ccc(F)cc2)oc2cc(N(C)S(C)(=O)=O)c(-c3c[nH]c(=O)c(-c4nc5c(F)cccc5o4)c3)cc12 [Compound 159] | 1.3 | 0.8 |
| CNC(=O)c1c(-c2ccc(F)cc2)oc2cc(N(C)S(C)(=O)=O)c(-c3cc(N4Cc5cccc(F)c5C4)ncc3OC)cc12 [Compound 294] | 22 | 54 |
| CNC(=O)c1c(-c2ccc(F)cc2)oc2cc(N(C)S(C)(=O)=O)c(-c3ccnc(-c4cc5ccccc5[nH]4)c3)cc12 [Compound 109] | 1 | 0.4 |
| CNC(=O)c1c(-c2ccc(F)cc2)oc2cc(N(C)S(C)(=O)=O)c(-c3cc(-c4cc5ccccc5[nH]4)nc(OC)n3)cc12 [Compound 150, 5-(6-(1H-indol-2-yl)-2-methoxypyrimidin-4-yl)-2-(4-fluorophenyl)-N-methyl-6-(N-methylmethylsulfonamido)benzofuran-3-carboxamide] | 5.1 | 3.2 |

From patent US9549917B2, “Heterocyclic-substituted benzofuran derivatives and methods of use thereof for the treatment of viral diseases” (priority 2011, dated 2017)
